{"source": "patent US5144059A", "about": "“Catecholamine esters” (priority 1989, dated 1992)", "key": {"[1]": {"tested_on": "Intraocular pressure in rabbit", "test": "Intraocular pressure in rabbit after topical application", "format": "in vivo", "settings": "0.1% solution topical; for Intraocular pressure: individual animal, Hydrochloride; for Intraocular pressure, mean: N=6"}, "[2]": {"test": "Permeability across excised pig cornea (perfusion method, HPLC)", "format": "in vitro ADME", "settings": "for Amount of unchanged product in the receiving compartment (permeability rate): 2.5 mM in donor, GBR pH 7.65, 34-35 °C; for Release of epinephrine inside the eye: conclusion from the excised cornea experiment; for Amount of epinephrine released by 2B223 in the receiving compartment: released by 2B223 (2450 nMoles in donor); for Amount of epinephrine released by 2B852 in the receiving compartment: released by 2B852 (2770 nMoles in donor)", "protocol": "Perfusion method: pig corneas have been removed with about 2 mm of sclera and set on a perfusion cell.\nThe receiving compartment and that of the donor were respectively filled with 6 ml and 1 ml of GBR solution (Glutathione Bicarbonate Ringer's solution) preheated at 35° C.\nDuring the analysis the cells were maintained at a temperature of 34°-35° C. with a thermostat (REACTI-THERM, Pierce). Besides, the solutions in the 2 compartments were maintained under a flow of 95% O2 --5% CO2 mixture.\nThe GBR solution in the donor compartment was then substituted with 1 ml of GBR solution saturated with O2 --CO2 containing, 2B223 or 2B852 (2.5 mM).\nAliquots of 600 μl were withdrawn from the receiving compartment every 40 minutes for a period of 4 hours and immediately replaced with an equal volume of GBR.\nA solution of GBR with diclofenac (0.1%) maintained at the same conditions (temperature 34°-35° C. and gassed with (O2 --CO2) acted as control aliquots from the control were withdrawn at the same times.\nThe samples and the controls at various times were immediately analyzed by HPLC.\nSolutions: Glutathione Bicarbonate Ringer's (GBR), pH 7.65. The GBR solution was prepared in two parts: part I was composed of sodium chloride 12.4 g/l, potassium chloride 0.716 g/l, sodium dihydrogen phosphate monohydrate 0.206 g/l and sodium bicarbonate 4.908 g/l while part II was composed of calcium chloride 0.230 g/l, magnesium chloride 0.318 g/l, glucose 1.8 g/l and oxidized glutathioine 0.184 g/l. Both parts were stored cold and utilized within two weeks.\nEqual volumes of part I and II were mixed prior to use."}, "[3]": {"tested_on": "Ocular Hypertension in Man", "test": "Ocular pressure in patients with non-severe ocular hypertension after instillation", "format": "in vivo", "settings": "one drop 0.1% solution; for Ocular pressure: individual patient, Hydrochloride; for Ocular pressure, mean: N=4", "protocol": "1 drop of a 0.1% solution of 2B223 or 2B852, respectively, was instilled into each eye of 8 patients (males) suffering from non-severe ocular hypertension. Ocular pressure was tested at time 0, and 30, 120, 180 minutes after the ocular instillation. At same times blood pressure and heart rate were also tested."}, "[4]": {"settings": "applied topically to the eye; stated as known; cited from earlier work"}}, "note": "Values joined by “and” are separate entries in the source; they are usually repeats but may differ in a detail not shown here. Identical values can stand only once."}
{"molecule": "CNCC(O)c1ccc(OC(=O)N(C)C)c(OC(=O)c2ccc(C)cc2)c1.Cl", "note": "(centres unmarked) [2B223, 3-O-(4-Methylbenzoyl)-4-O-(N,N-Dimethylcarbamoyl)adrenaline Hydrochloride]", "values": [{"measurement": "Intraocular pressure", "setting": "[1]; 1 hour", "value": "12 mm Hg and 13 mm Hg and 11 mm Hg"}, {"measurement": "Intraocular pressure", "setting": "[1]; 2 hours", "value": "13 mm Hg and 14 mm Hg"}, {"measurement": "Intraocular pressure", "setting": "[1]; 4 hours", "value": "14 mm Hg and 15 mm Hg and 13 mm Hg"}, {"measurement": "Intraocular pressure", "setting": "[1]; 8 hours", "value": "15 mm Hg and 16 mm Hg and 14 mm Hg"}, {"measurement": "Intraocular pressure", "setting": "[1]; time 0 (baseline)", "value": "16 mm Hg and 15 mm Hg and 17 mm Hg"}, {"measurement": "Intraocular pressure, mean", "setting": "[1]; 1 hour", "value": 12.2, "unit": "mm Hg"}, {"measurement": "Intraocular pressure, mean", "setting": "[1]; 2 hours", "value": 13.3, "unit": "mm Hg"}, {"measurement": "Intraocular pressure, mean", "setting": "[1]; 4 hours", "value": 14.2, "unit": "mm Hg"}, {"measurement": "Intraocular pressure, mean", "setting": "[1]; 8 hours", "value": 15.2, "unit": "mm Hg"}, {"measurement": "Intraocular pressure, mean", "setting": "[1]; time 0 (baseline)", "value": 16.0, "unit": "mm Hg"}, {"measurement": "Amount of unchanged product in the receiving compartment (permeability rate)", "setting": "[2]; 40 min", "value": 0.0, "unit": "nmol"}, {"measurement": "Amount of unchanged product in the receiving compartment (permeability rate)", "setting": "[2]; 80 min", "value": 1.3, "unit": "nmol"}, {"measurement": "Amount of unchanged product in the receiving compartment (permeability rate)", "setting": "[2]; 120 min", "value": 4.1, "unit": "nmol"}, {"measurement": "Amount of unchanged product in the receiving compartment (permeability rate)", "setting": "[2]; 160 min", "value": 23.5, "unit": "nmol"}, {"measurement": "Release of epinephrine inside the eye", "setting": "[2]", "value": "epinephrine is released inside the eye"}, {"measurement": "Ocular pressure", "setting": "[3]; left eye, 0 min (baseline)", "value": "26 mmHg and 25 mmHg"}, {"measurement": "Ocular pressure", "setting": "[3]; left eye, 30 min", "value": "25 mmHg and 23 mmHg"}, {"measurement": "Ocular pressure", "setting": "[3]; left eye, 120 min", "value": "20 mmHg and 22 mmHg"}, {"measurement": "Ocular pressure", "setting": "[3]; left eye, 180 min", "value": "22 mmHg and 24 mmHg and 25 mmHg"}, {"measurement": "Ocular pressure", "setting": "[3]; right eye, 0 min (baseline)", "value": "27 mmHg and 24 mmHg and 23 mmHg"}, {"measurement": "Ocular pressure", "setting": "[3]; right eye, 30 min", "value": "24 mmHg and 23 mmHg and 25 mmHg"}, {"measurement": "Ocular pressure", "setting": "[3]; right eye, 120 min", "value": "22 mmHg and 21 mmHg and 23 mmHg"}, {"measurement": "Ocular pressure", "setting": "[3]; right eye, 180 min", "value": "23 mmHg and 22 mmHg and 24 mmHg"}, {"measurement": "Ocular pressure, mean", "setting": "[3]; left eye, 0 min (baseline)", "value": 25.8, "unit": "mmHg"}, {"measurement": "Ocular pressure, mean", "setting": "[3]; left eye, 30 min", "value": 24.5, "unit": "mmHg"}, {"measurement": "Ocular pressure, mean", "setting": "[3]; left eye, 120 min", "value": 21.5, "unit": "mmHg"}, {"measurement": "Ocular pressure, mean", "setting": "[3]; left eye, 180 min", "value": 23.8, "unit": "mmHg"}, {"measurement": "Ocular pressure, mean", "setting": "[3]; right eye, 0 min (baseline)", "value": 25.3, "unit": "mmHg"}, {"measurement": "Ocular pressure, mean", "setting": "[3]; right eye, 30 min", "value": 24.0, "unit": "mmHg"}, {"measurement": "Ocular pressure, mean", "setting": "[3]; right eye, 120 min", "value": 22.3, "unit": "mmHg"}, {"measurement": "Ocular pressure, mean", "setting": "[3]; right eye, 180 min", "value": 23.3, "unit": "mmHg"}]}
{"molecule": "CNCC(O)c1ccc(OC(=O)N(C)C)c(OC(=O)C(C)C)c1.Cl", "note": "(centres unmarked) [2B852, 3-O-Isobutyryl-4-O-(N,N-Dimethylcarbamoyl)adrenaline Hydrochloride]", "values": [{"measurement": "Intraocular pressure", "setting": "[1]; 1 hour", "value": "12 mm Hg and 13 mm Hg and 11 mm Hg"}, {"measurement": "Intraocular pressure", "setting": "[1]; 2 hours", "value": "13 mm Hg and 14 mm Hg"}, {"measurement": "Intraocular pressure", "setting": "[1]; 4 hours", "value": "14 mm Hg and 15 mm Hg"}, {"measurement": "Intraocular pressure", "setting": "[1]; 8 hours", "value": "16 mm Hg and 15 mm Hg and 14 mm Hg"}, {"measurement": "Intraocular pressure", "setting": "[1]; time 0 (baseline)", "value": "15 mm Hg and 16 mm Hg"}, {"measurement": "Intraocular pressure, mean", "setting": "[1]; 1 hour", "value": 11.8, "unit": "mm Hg"}, {"measurement": "Intraocular pressure, mean", "setting": "[1]; 2 hours", "value": 13.5, "unit": "mm Hg"}, {"measurement": "Intraocular pressure, mean", "setting": "[1]; 4 hours", "value": 14.3, "unit": "mm Hg"}, {"measurement": "Intraocular pressure, mean", "setting": "[1]; 8 hours", "value": 15.3, "unit": "mm Hg"}, {"measurement": "Intraocular pressure, mean", "setting": "[1]; time 0 (baseline)", "value": 15.7, "unit": "mm Hg"}, {"measurement": "Amount of unchanged product in the receiving compartment (permeability rate)", "setting": "[2]; 40 min", "value": 0.0, "unit": "nmol"}, {"measurement": "Amount of unchanged product in the receiving compartment (permeability rate)", "setting": "[2]; 80 min", "value": 0.0, "unit": "nmol"}, {"measurement": "Amount of unchanged product in the receiving compartment (permeability rate)", "setting": "[2]; 120 min", "value": 0.0, "unit": "nmol"}, {"measurement": "Amount of unchanged product in the receiving compartment (permeability rate)", "setting": "[2]; 160 min", "value": 0.0, "unit": "nmol"}, {"measurement": "Release of epinephrine inside the eye", "setting": "[2]", "value": "epinephrine is released inside the eye"}, {"measurement": "Ocular pressure", "setting": "[3]; left eye, 0 min (baseline)", "value": "27 mmHg and 26 mmHg"}, {"measurement": "Ocular pressure", "setting": "[3]; left eye, 30 min", "value": "26 mmHg and 24 mmHg and 25 mmHg"}, {"measurement": "Ocular pressure", "setting": "[3]; left eye, 120 min", "value": "24 mmHg and 22 mmHg and 25 mmHg"}, {"measurement": "Ocular pressure", "setting": "[3]; left eye, 180 min", "value": "23 mmHg and 25 mmHg"}, {"measurement": "Ocular pressure", "setting": "[3]; right eye, 0 min (baseline)", "value": "26 mmHg and 25 mmHg and 24 mmHg and 28 mmHg"}, {"measurement": "Ocular pressure", "setting": "[3]; right eye, 30 min", "value": "25 mmHg and 24 mmHg and 23 mmHg and 26 mmHg"}, {"measurement": "Ocular pressure", "setting": "[3]; right eye, 120 min", "value": "23 mmHg and 22 mmHg and 24 mmHg"}, {"measurement": "Ocular pressure", "setting": "[3]; right eye, 180 min", "value": "25 mmHg and 22 mmHg and 23 mmHg and 24 mmHg"}, {"measurement": "Ocular pressure, mean", "setting": "[3]; left eye, 0 min (baseline)", "value": 26.5, "unit": "mmHg"}, {"measurement": "Ocular pressure, mean", "setting": "[3]; left eye, 30 min", "value": 25.3, "unit": "mmHg"}, {"measurement": "Ocular pressure, mean", "setting": "[3]; left eye, 120 min", "value": 23.8, "unit": "mmHg"}, {"measurement": "Ocular pressure, mean", "setting": "[3]; left eye, 180 min", "value": 23.8, "unit": "mmHg"}, {"measurement": "Ocular pressure, mean", "setting": "[3]; right eye, 0 min (baseline)", "value": 25.8, "unit": "mmHg"}, {"measurement": "Ocular pressure, mean", "setting": "[3]; right eye, 30 min", "value": 24.0, "unit": "mmHg"}, {"measurement": "Ocular pressure, mean", "setting": "[3]; right eye, 120 min", "value": 23.0, "unit": "mmHg"}, {"measurement": "Ocular pressure, mean", "setting": "[3]; right eye, 180 min", "value": 23.5, "unit": "mmHg"}]}
{"molecule": "CNC[C@H](O)c1ccc(O)c(O)c1", "note": "[EPINEPHRINE, epinephrine, reference compound]", "values": [{"measurement": "Amount of epinephrine released by 2B223 in the receiving compartment", "setting": "[2]; 40 min", "value": 15.8, "unit": "nmol"}, {"measurement": "Amount of epinephrine released by 2B223 in the receiving compartment", "setting": "[2]; 80 min", "value": 21.7, "unit": "nmol"}, {"measurement": "Amount of epinephrine released by 2B223 in the receiving compartment", "setting": "[2]; 120 min", "value": 23.4, "unit": "nmol"}, {"measurement": "Amount of epinephrine released by 2B223 in the receiving compartment", "setting": "[2]; 160 min", "value": 26.2, "unit": "nmol"}, {"measurement": "Amount of epinephrine released by 2B852 in the receiving compartment", "setting": "[2]; 40 min", "value": 14.5, "unit": "nmol"}, {"measurement": "Amount of epinephrine released by 2B852 in the receiving compartment", "setting": "[2]; 80 min", "value": 23.7, "unit": "nmol"}, {"measurement": "Amount of epinephrine released by 2B852 in the receiving compartment", "setting": "[2]; 120 min", "value": 28.9, "unit": "nmol"}, {"measurement": "Amount of epinephrine released by 2B852 in the receiving compartment", "setting": "[2]; 160 min", "value": 32.0, "unit": "nmol"}, {"measurement": "Permeation of cornea barrier", "setting": "[4]", "value": "does not permeate cornea barrier"}]}
